Usually EC50 stands for the concentration at which the effect is half-maximal. The term Emax denotes the size of the effect at its maximum, as opposed to the concentration needed.

The record followed here is patent US11072601B2, “μ-opioid receptor agonist and preparation method therefor and use thereof in field of medicine” (SHANGHAI SYNERGY PHARMACEUTICAL SCIENCES CO., LTD., priority 2017, dated 2021).

One series has as its target T1, μ opioid receptor (MOR) (Homo sapiens, UniProt P35372).
T1 construct: host or cells: HEK293
As to the kind of experiment: cell-based. The note with it: HEK293 stably expressing μ opioid receptor, FLIPR calcium. The protocol:
The purpose of the experiment was to test the agonistic effects of the compounds of the present invention on μ opioid receptor (MOR), κ opioid receptor (KOR) and δ opioid receptor (DOR), and to evaluate in vitro activity of the compounds according to the half-maximal effect concentration (EC50).
This test was performed using HEK293 cell lines (the stably expressed cell lines were provided by WuXi AppTec) which stably expressed μ opioid receptor, δ opioid receptor or κ opioid receptor respectively. […] The cells were centrifuged at 1000 rpm for 5 minutes at room temperature to precipitate. The supernatant was sucked out, be careful not to suck out cells. The precipitate was flicked into the loose cells and resuspend in 45 ml DMEM medium. The Vi-CELL XR automatic cell viability detector (BECKMAN COULTER) was used to count the cells, and the cell concentration was adjusted to 10×10^5 cells/ml based on the counting results.
Preparation of probenecid mother solution: 1 ml of FLIPR test solution was added to 77 mg probenecid to prepare a 250 mM solution. The solution was freshly prepared just before use.
The solution was freshly prepared just before use.
The cell plate prepared above was removed from the incubator and 20 ul 2× Fluo-4 Direct™ buffer was added thereto. The final volume in the cell plate was […]. The plate was incubated at 37° C., under 5% CO2 for 50 minutes, and incubated at room temperature for 10 minutes, then was placed into the FLIPR instrument (MD), and the compound plate and pipette box was placed into. The protocol was run on the […] platform, 10 μl of positive drug or the test compound was transfered to the cell plate from the compound plate, and the fluorescent signal was read.
The signal value generated by each well was calculated, and the calculation formula was that: the activity %=(signal value of the test compound−signal value of the solvent)/(signal value of the positive drug−signal value of the solvent).

Series [1] deals with T2, β-arrestin signaling pathway of MOR (Homo sapiens, UniProt P35372).
T2 construct: host or cells: HEK293 (PathHunter cell line)
T2 sequence (P35372 whole entry): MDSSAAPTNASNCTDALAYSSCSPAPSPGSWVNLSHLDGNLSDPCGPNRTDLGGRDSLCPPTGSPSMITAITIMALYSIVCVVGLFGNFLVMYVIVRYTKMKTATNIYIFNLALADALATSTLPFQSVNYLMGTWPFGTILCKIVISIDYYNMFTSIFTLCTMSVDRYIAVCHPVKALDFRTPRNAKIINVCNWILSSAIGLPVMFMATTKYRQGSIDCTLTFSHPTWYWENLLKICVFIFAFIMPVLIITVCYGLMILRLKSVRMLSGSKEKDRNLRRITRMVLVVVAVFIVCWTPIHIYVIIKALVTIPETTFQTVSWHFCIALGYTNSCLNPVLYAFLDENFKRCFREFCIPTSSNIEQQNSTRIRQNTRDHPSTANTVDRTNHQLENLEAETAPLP
As to the kind of experiment: cell-based. The note with it: PathHunter HEK293 cells, relative to endorphin MAX control.

Series [2] deals with T3, cAMP pathway of MOR receptor (Homo sapiens, UniProt P35372).
T3 construct: host or cells: HEK293 (cAMP Hunter cell line)
T3 sequence (P35372 whole entry): as above
As to the kind of experiment: cell-based. To be noted: cAMP Hunter HEK293 cells, forskolin-induced cAMP; read-out: EC50 of cAMP levels affected by agonistic effect on MOR. The source says: The purpose of this experiment was to test the agonistic effect of the compounds of the invention on the cAMP pathway of MOR and to evaluate the in vitro activity of the compounds according to EC50.
In this experiment, HitHunter cAMP Assay EFC technology of DiscoverX was used to measure the cAMP level in cells and monitor the functional status of G-protein coupled receptors (GPCRs).
The amount of signal produced was directly proportional to the amount of cAMP in the cell.
The MOR receptor was bound to the inhibitory Gαi protein, so forskolin (for inducing cAMP signal) was used to induce cAMP expression in the experiment, and the inhibitory effect of the compounds on the above induction was measured.
The cAMP Hunter cell line (HEK293, DiscoverX) was removed from the freezer and expanded according to the Cell Standard Operating Procedure (SOP), 20 μL was collected and inoculated into a 384-well microplate and incubated at 37° C. overnight.
The HitHunter cAMP Assay test kit (DiscoverX, 90-0075sm) was used, the kit contained cAMP buffer, cAMP detection solution, and cAMP working solution A.
The formula was used to calculate the percentage of signal activity per well=100%×(1−(average RLU of the test samples−average RLU of the MAX controls)/(average RLU of the solvent controls−average RLU of the MAX controls)). wherein, the MAX control referred to the fluorescence signal value of the endorphin solution, and the solvent control referred to the fluorescence signal value of DMSO. The DiscoveRx CBIS data analysis workstation (ChemInnovation, CA) was used to perform statistical analysis of the percentage of signal activity and the concentration of the compounds by the agonist formula (comes with the software, universal) to calculate the EC50 value.

Another series concerns SD rats. As to the kind of experiment: Respiratory depression in rats, arterial blood gas PCO2. The format is in vivo. From the text: 8-week-old male SD rats weighing 200 g-300 g were used as experimental animals to determine the effect of the compound of Example H05, the compound of Example H08, the compound of Example H10, the compound of Example H16, the compound of Example H17, the compound of Example H18, the compound of Example H21, and the compound of Example H24 on the partial pressure of blood in rats after intravenous administration. The effects of the compounds of the invention on respiratory depression were investigated.
After the rats were acclimatized to the experimental environment for 3 days, each animal was anesthetized with sodium pentobarbital (50-60 mg/kg, ip), and then the right common carotid artery was isolated and the unilateral carotid artery tube-bury surgery was performed (PE60, ID*OD*length as 0.76 mm*1.22 mm*20 cm, buried into the artery 1 cm deep, and the tube was filled with heparin sodium tube sealing solution).

T1 sequence (P35372 whole entry, species assumed): as the sequence (P35372 whole entry) above

With `FC(F)(F)Oc1ccccc1CNCCC1(c2ccccn2)CCOC2(CCCC2)C1` (centres unmarked) [Example H22, (2-trifluoromethoxybenzyl)-[2-(9-pyridin-2-yl-6-oxa-spiro[4.5]decan-9-yl) -ethyl]-amine], the results for the EC50 (at μ opioid receptor (MOR); in series [2]) were 1.04 nM and 11.9 nM, respectively. This compound registered an Emax in series [1] of 2.31%.

Regarding `N#Cc1cccc(CNCCC2(c3ccccn3)CCOC3(CCCC3)C2)c1OC(F)(F)F` (centres unmarked) [Example H13], the concentration for a half-maximal effect (EC50) at μ opioid receptor (MOR) was determined as 5.16 nM; in series [2] it was 9.43 nM. In addition, the Emax in series [1] came to 3.41%.

On to `COc1[nH]ncc1CNCCC1(c2ccccn2)CCOC2(CCCC2)C1` (centres unmarked) [Example H25, [(5-methoxy-1H-pyrazol-4-yl)methyl]-[2-(9-(pyridin-2-yl)-6-oxaspiro[4.5]decan-9-yl)ethyl] amine], for which the values for the EC50 (on μ opioid receptor (MOR); in series [2]) were 2.02 nM and 12.8 nM, respectively. Moreover, the Emax in series [1] was 3.2%.

Regarding `COc1ccsc1CNC(C)CC1(c2ccccn2)CCOC2(CCCC2)C1` (centres unmarked) [Example H27], the concentration giving a half-maximal response (EC50) amounted to 4.01 nM at μ opioid receptor (MOR) and 12 nM in series [2]. The compound further gave a maximum response (Emax) in series [1] of 3.32%.

In the case of `FC(F)(F)Oc1c(Br)cccc1CNCCC1(c2ccccn2)CCOC2(CCCC2)C1` (centres unmarked) [Example H28, (3-bromo-2-trifluoromethoxybenzyl)-[2-(9-pyridin-2-yl-6-oxa-spiro[4.5]decan-9-yl)-ethyl]-amine], the EC50 at μ opioid receptor (MOR) came out at 6.35 nM; in series [2] it was 14.2 nM. Besides, the Emax in series [1] is 6.26%.

With `Fc1ccc(C2(CCNCc3ccccc3OC(F)F)CCOC3(CCCC3)C2)nc1` (centres unmarked) [Example H29, {2-[9-(5-fluoro-pyridin-2-yl) -6-oxa-spiro[4.5]decan-9-yl]-ethyl}-(2-(difluoromethoxy)-benzyl) -amine], the EC50 was found to be 6.09 nM on μ opioid receptor (MOR) and 10.4 nM in series [2]. The maximal effect (Emax) in series [1] stood at 7.07%.

For `Fc1ccc(C2(CCNCc3sccc3Cl)CCOC3(CCCC3)C2)nc1` (centres unmarked) [Example H30, {2-[9-(5-fluoro-pyridin-2-yl)-6-oxa-spiro[4.5]decan-9-yl]-ethyl}-((3-chlorothiophen-2-yl)-methyl)-amine], the EC50 stood at 5.62 nM at μ opioid receptor (MOR) and 17.4 nM in series [2]. In addition, in series [1], the Emax was 2.91%.

Consider `Fc1cnc(C2(CCNCc3ccccc3OC(F)(F)F)CCOC3(CCCC3)C2)c(Cl)c1` (centres unmarked) [Example H09, (2-trifluoromethoxybenzyl)-[2-(9-(3-chloro-5-fluoropyridin-2-yl)-6-oxaspiro[4.5]decan-9-yl)ethyl]amine], for which the EC50 stood at 4.12 nM on μ opioid receptor (MOR) and 8.45 nM in series [2]. The same compound displayed an Emax in series [1] of 3.28%.

As to `FC(F)(F)c1ccsc1CNCCC1(c2ccccn2)CCOC2(CCCC2)C1` (centres unmarked) [Example H14, ((3-trifluoromethylthiophen-2-yl)methyl)-[2-(9-(pyridin-2-yl)-6-oxaspiro[4.5]decan-9-yl)ethyl]a mine], the EC50 came out at 2.1 nM on μ opioid receptor (MOR) and 15.9 nM in series [2]. In series [1], the maximal effect (Emax) was 1.82%.

Regarding `Fc1ccc(C2(CCNCc3sccc3OC(F)F)CCOC3(CCCC3)C2)nc1` (centres unmarked) [Example H33, {2-[9-(5-fluoro-pyridin-2-yl)-6-oxa-spiro[4.5]decan-9-yl]-ethyl}-((3-difluoromethoxythiophen-2-yl) -methyl)-amine], the EC50 on μ opioid receptor (MOR) turned out to be 5.25 nM; in series [2], 12 nM. This compound also yielded an Emax in series [1] of 8.69%.

In the case of `FC(F)(F)c1ccc2c(c1)CN(CCC1(c3ccccn3)CCOC3(CCCC3)C1)CC2` (centres unmarked) [Example H19, 2-[2-(9-(pyridin-2-yl)-6-oxaspiro[4.5]decan-9-yl)ethyl]-7-trifluoromethyl-1,2,3,4-tetrahydroisoquinoline], the figures for the EC50 (on μ opioid receptor (MOR); in series [2]) were 5.43 nM and 18.6 nM, respectively. Also, in series [1], the maximal effect (Emax) was determined as 1.12%.

With `CN1CC[C@]23c4c5ccc(O)c4O[C@H]2[C@@H](O)C=C[C@H]3[C@H]1C5` [morphine, reference compound], in the series with SD rats (arterial blood, before administration), the “PCO2, 5 min before administration” value was found to be 36.41 ± 0.98 mmHg. Also, the “PCO2, 5 min after administration” value in the series with SD rats (intravenous single dose 0.3 mg/kg (morphine 24 mg/kg), 5 min) is on record as 37.26 ± 1.18 mmHg. For the same compound, the “PCO2, 30 min after administration” value with SD rats (intravenous single dose 0.3 mg/kg (morphine 24 mg/kg), 30 min) is recorded as 40.94 ± 2.78 mmHg. Further, the “PCO2, 60 min after administration” value in the series with SD rats (intravenous single dose 0.3 mg/kg (morphine 24 mg/kg), 60 min) amounted to 58.63 ± 3.53 mmHg. Moreover, the “PCO2, 120 min after administration” value in the series on SD rats (intravenous single dose 0.3 mg/kg (morphine 24 mg/kg), 120 min) is recorded as 56.9 ± 4.05 mmHg.

Consider `Cc1c(Cl)cccc1CNCCC1(c2ccc(F)cn2)CCOC2(CCCC2)C1` (centres unmarked) [Example H32, {2-[9-(5-fluoro-pyridin-2-yl)-6-oxa-spiro[4.5]decan-9-yl]-ethyl}-(3-chloro-2-methyl-benzyl)-amine], for which the EC50 at μ opioid receptor (MOR) was 7.35 nM; in series [2], 13.5 nM. Also, the maximal response (Emax) in series [1] came out at 11.7%.

For the compound `Cc1ccc(CNCCC2(c3ccc(F)cn3)CCOC3(CCCC3)C2)cc1C` (centres unmarked) [Example H31, {2-[9-(5-fluoro-pyridin-2-yl)-6-oxa-spiro[4.5]decan-9-yl]-ethyl}-(3,4-dimethyl-benzyl)-amine], the EC50 worked out at 3.83 nM at μ opioid receptor (MOR) and 8.73 nM in series [2]. Further, in series [1], the Emax worked out at 5.06%.

`Cc1ccc(CNCCC2(c3ccccn3)CCOC3(CCCC3)C2)c(OC(F)(F)F)c1` (centres unmarked) [Example H12, (4-methyl-2-trifluoromethoxybenzyl)-[2-(9-(pyridin-2-yl)-6-oxaspiro[4.5]decan-9-yl)ethyl]amine]: the concentration giving a half-maximal response (EC50) came out at 2.04 nM at μ opioid receptor (MOR) and 5.51 nM in series [2]. In series [1], this compound came in with an Emax of 32.2%.

Regarding `COc1ccsc1CNCC(C)C1(c2ccccn2)CCOC2(CCCC2)C1` (centres unmarked) [Example H26], the half-maximal effective concentration (EC50) at μ opioid receptor (MOR) was 1.76 nM; in series [2], 6.95 nM. Further, in series [1], the Emax is 22.6%.

In the case of `CNc1ccccc1CNCCC1(c2ccccn2)CCOC2(CCCC2)C1` (centres unmarked) [Example H03], the EC50 at μ opioid receptor (MOR) came to 6.47 nM; in series [2], 4.36 nM. The same compound showed a maximal effect (Emax) in series [1] of 3.19%.

Consider `COc1ccc2c(c1)CN(CCC1(c3ccccn3)CCOC3(CCCC3)C1)CC2` (centres unmarked) [Example H20, 7-methoxy-2-[2-(9-pyridin-2-yl-6-oxa-spiro[4.5]decan-9-yl)-ethyl]-1,2,3,4-tetrahydroisoquinoline], for which the figures for the EC50 (on μ opioid receptor (MOR); in series [2]) were 3.53 nM and 19.9 nM, respectively. In series [1], this compound yielded an Emax of 2.12%.

With `FC(F)(F)Oc1cc(Br)ccc1CNCCC1(c2ccccn2)CCOC2(CCCC2)C1` (centres unmarked) [Example H11, (4-bromo-2-trifluoromethoxybenzyl)-[2-(9-(pyridin-2-yl)-6-oxaspiro[4.5]decan-9-yl)ethyl]amine], the EC50 stood at 2.08 nM on μ opioid receptor (MOR) and 7.31 nM in series [2]. The maximal response (Emax) in series [1] worked out at 2.28%.

Regarding `FC(F)(F)Oc1ccc(CNCCC2(c3ccccn3)CCOC3(CCCC3)C2)cc1` (centres unmarked) [Example H06, (4-trifluoromethoxybenzyl)-[2-(9-(pyridin-2-yl)-6-oxaspiro[4.5]decan-9-yl)ethyl]amine], the EC50 on μ opioid receptor (MOR) was determined as 6.1 nM; in series [2], 11.8 nM. The maximum response (Emax) in series [1] came to 0.66%.
